Read-outs that look alike come from different tables or passages of the source. Positions of bridges follow the written chain, without caps; N, C: chain ends. Non-standard residues stand in square brackets, D forms with d. Residues, ends and D or L forms follow the SMILES beside them. Sec = N[C@@H](C[SeH])C(=O)O
What was measured:
[1] = biological target: T1, Natriuretic Peptide Receptor-A (NPR-A) signaling in MDCK cells (Canis lupus familiaris, UniProt A0A8I3MHU3); type: cell-based, canine; settings: for EC50: read-out: EC50 (M) ± Standard Error
T1 sequence (A0A8I3MHU3 32-1060): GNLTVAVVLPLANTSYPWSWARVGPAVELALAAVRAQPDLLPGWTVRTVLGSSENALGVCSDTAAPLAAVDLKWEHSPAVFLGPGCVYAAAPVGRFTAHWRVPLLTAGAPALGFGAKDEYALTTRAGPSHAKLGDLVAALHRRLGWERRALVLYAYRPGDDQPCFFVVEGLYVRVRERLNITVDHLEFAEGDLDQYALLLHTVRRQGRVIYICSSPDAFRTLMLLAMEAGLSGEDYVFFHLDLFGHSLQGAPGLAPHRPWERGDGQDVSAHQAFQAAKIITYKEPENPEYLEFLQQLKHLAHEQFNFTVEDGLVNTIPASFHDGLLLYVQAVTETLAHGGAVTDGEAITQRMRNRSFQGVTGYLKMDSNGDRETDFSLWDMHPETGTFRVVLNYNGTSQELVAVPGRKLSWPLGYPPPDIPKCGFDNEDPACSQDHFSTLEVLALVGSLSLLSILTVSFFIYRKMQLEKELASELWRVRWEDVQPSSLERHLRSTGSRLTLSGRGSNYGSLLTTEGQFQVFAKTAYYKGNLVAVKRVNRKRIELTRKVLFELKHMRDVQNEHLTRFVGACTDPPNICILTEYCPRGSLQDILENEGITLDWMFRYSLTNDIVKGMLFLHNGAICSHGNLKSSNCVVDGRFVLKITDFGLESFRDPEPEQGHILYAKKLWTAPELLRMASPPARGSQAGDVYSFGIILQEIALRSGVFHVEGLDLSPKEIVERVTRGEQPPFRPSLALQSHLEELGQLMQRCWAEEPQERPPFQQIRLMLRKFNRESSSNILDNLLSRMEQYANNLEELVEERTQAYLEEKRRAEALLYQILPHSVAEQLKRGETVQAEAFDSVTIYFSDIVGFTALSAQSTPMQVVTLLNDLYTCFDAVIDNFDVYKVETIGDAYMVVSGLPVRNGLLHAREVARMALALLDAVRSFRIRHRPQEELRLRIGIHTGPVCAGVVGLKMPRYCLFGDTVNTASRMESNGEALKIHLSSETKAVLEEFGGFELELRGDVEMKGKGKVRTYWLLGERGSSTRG

[2] = test system: conscious rabbits; assay: Blood pressure and heart rate in conscious rabbits, intravenous infusion dose-response (Example 8)
[3] = stimulation of cGMP accumulation in MDCK cells
[4] = after a 2 hour recovery period, Table 10B

Row | Structure (SMILES) | −Log10 EC50 (pEC50) ± Standard Error [1, 3] | EC50 [1, 3] | −Log10 EC50 (pEC50) ± Standard Error [1] | EC50 [1] | MAP at final dose ([2]; Table 10B) | Recovery (MAP) [2, 4] | Recovery Delta SED (MAP) [2, 4] | Treatment Effect, change of mean blood pressure during the infusion ([2]; final dose, Table 10B, groups 2B and 2C) | reduction of MAP compared to vehicle, in words ([2]; highest dose)
1 | CC[C@H](C)[C@H](NC(=O)[C@H](CCCCN)NC(=O)[C@H](CO)NC(=O)[C@H](CC(=O)O)NC(=O)[C@@H](N)CO)C(=O)NCC(=O)N[C@@H](CC(=O)O)C(=O)NCC(=O)N[C@H]1CSSC[C@@H](C(=O)N[C@@H](CC(N)=O)C(=O)N[C@@H](CCCNC(=N)N)C(=O)N[C@H](C(=O)N[C@@H](CCSC)C(=O)N[C@@H](CCC(N)=O)C(=O)N[C@@H](CC(N)=O)C(=O)N2CCC[C@H]2C(=O)N2CCC[C@H]2C(=O)N[C@@H](CCCCN)C(=O)N[C@@H](CCCCN)C(=O)N[C@@H](Cc2ccccc2)C(=O)N[C@@H](CO)C(=O)NCC(=O)N[C@@H](CCC(=O)O)C(=O)O)[C@@H](C)CC)NC(=O)CNC(=O)[C@H](CC(C)C)NC(=O)CNC(=O)[C@H](CO)NC(=O)[C@H](C(C)C)NC(=O)[C@H](CO)NC(=O)CNC(=O)[C@H]([C@@H](C)CC)NC(=O)[C@H](CCCNC(=N)N)NC(=O)[C@H](CC(=O)O)NC(=O)[C@H](CC(C)C)NC(=O)[C@@H]2CCCN2C(=O)[C@H](Cc2ccccc2)NC(=O)CNC(=O)[C@H](Cc2ccccc2)NC1=O [Peptide N7D-TNPc] (H-SDSKIGDGCFGFPLDRIGSVSGLGCNRIMQNPPKKFSGE-OH; disulfide 9-25; N-terminus assumed) | 7.585 ± 0.005 | 2.62e-08 M | – | – | – | – | – | – | –
2 | CC[C@H](C)[C@H](NC(=O)[C@H](CCCCN)NC(=O)[C@H](CO)NC(=O)[C@H](CC(=O)O)NC(=O)[C@@H](N)CO)C(=O)NCC(=O)N[C@@H](CC(N)=O)C(=O)NCC(=O)N[C@H]1CSSC[C@@H](C(=O)N[C@@H](CC(N)=O)C(=O)N[C@@H](CCCNC(=N)N)C(=O)N[C@H](C(=O)N[C@@H](CCSC)C(=O)N[C@@H](CCC(N)=O)C(=O)N[C@@H](CC(N)=O)C(=O)N[C@@H](CCCNC(=N)N)C(=O)N2CCC[C@H]2C(=O)N[C@@H](CCCCN)C(=O)N[C@@H](CCCCN)C(=O)N[C@@H](Cc2ccccc2)C(=O)N[C@@H](CO)C(=O)NCC(=O)N[C@@H](CCC(=O)O)C(=O)O)[C@@H](C)CC)NC(=O)CNC(=O)[C@H](CC(C)C)NC(=O)CNC(=O)[C@H](CO)NC(=O)[C@H](C(C)C)NC(=O)[C@H](CO)NC(=O)CNC(=O)[C@H]([C@@H](C)CC)NC(=O)[C@H](CCCNC(=N)N)NC(=O)[C@H](CC(=O)O)NC(=O)[C@H](CC(C)C)NC(=O)[C@@H]2CCCN2C(=O)[C@H](Cc2ccccc2)NC(=O)CNC(=O)[C@H](Cc2ccccc2)NC1=O [Peptide P32R-TNPc] (H-SDSKIGNGCFGFPLDRIGSVSGLGCNRIMQNRPKKFSGE-OH; disulfide 9-25; N-terminus assumed) | 7.680 ± 0.5322 | 9.91e-08 M | – | – | – | – | – | – | –
3 | CC[C@H](C)[C@H](NC(=O)[C@H](CCCCN)NC(=O)[C@H](CO)NC(=O)[C@H](CC(=O)O)NC(=O)[C@@H](N)CO)C(=O)NCC(=O)N[C@@H](CC(N)=O)C(=O)NCC(=O)N[C@H]1C[Se][Se]C[C@@H](C(=O)N[C@@H](CC(N)=O)C(=O)N[C@@H](CCCNC(=N)N)C(=O)N[C@H](C(=O)N[C@@H](CCSC)C(=O)N[C@@H](CCC(N)=O)C(=O)N[C@@H](CC(N)=O)C(=O)N2CCC[C@H]2C(=O)N2CCC[C@H]2C(=O)N[C@@H](CCCCN)C(=O)N[C@@H](CCCCN)C(=O)N[C@@H](Cc2ccccc2)C(=O)N[C@@H](CO)C(=O)NCC(=O)N[C@@H](CCC(=O)O)C(=O)O)[C@@H](C)CC)NC(=O)CNC(=O)[C@H](CC(C)C)NC(=O)CNC(=O)[C@H](CO)NC(=O)[C@H](C(C)C)NC(=O)[C@H](CO)NC(=O)CNC(=O)[C@H]([C@@H](C)CC)NC(=O)[C@H](CCCNC(=N)N)NC(=O)[C@H](CC(=O)O)NC(=O)[C@H](CC(C)C)NC(=O)[C@@H]2CCCN2C(=O)[C@H](Cc2ccccc2)NC(=O)CNC(=O)[C@H](Cc2ccccc2)NC1=O [Sec2-TNPc] (H-SDSKIGNG[Sec]FGFPLDRIGSVSGLG[Sec]NRIMQNPPKKFSGE-OH; diselenide 9-25) | – | – | 7.463 ± 0.4096 | 6.39e-08 M | – | – | – | – | –
4 | CC[C@H](C)[C@H](NC(=O)[C@H](CCCCN)NC(=O)[C@H](CO)NC(=O)[C@H](CC(=O)O)NC(=O)[C@@H](N)CO)C(=O)NCC(=O)N[C@@H](CC(N)=O)C(=O)NCC(=O)N[C@H]1CSSC[C@@H](C(=O)N[C@@H](CC(N)=O)C(=O)N[C@@H](CCCNC(=N)N)C(=O)N[C@H](C(=O)N[C@@H](CCSC)C(=O)N[C@@H](CCC(N)=O)C(=O)N[C@@H](CC(N)=O)C(=O)N2CCC[C@H]2C(=O)N2CCC[C@H]2C(=O)N[C@@H](CCCCN)C(=O)N[C@@H](CCCCN)C(=O)N[C@@H](Cc2ccccc2)C(=O)N[C@@H](CO)C(=O)NCC(=O)N[C@@H](CCC(=O)O)C(=O)O)[C@@H](C)CC)NC(=O)CNC(=O)[C@H](CC(C)C)NC(=O)CNC(=O)[C@H](CO)NC(=O)[C@H](C(C)C)NC(=O)[C@H](CO)NC(=O)[C@H](CCCNC(=N)N)NC(=O)[C@H]([C@@H](C)CC)NC(=O)[C@H](CCCNC(=N)N)NC(=O)[C@H](CC(=O)O)NC(=O)[C@H](CC(C)C)NC(=O)[C@@H]2CCCN2C(=O)[C@H](Cc2ccccc2)NC(=O)CNC(=O)[C@H](Cc2ccccc2)NC1=O [TNPc R-18] (H-SDSKIGNGCFGFPLDRIRSVSGLGCNRIMQNPPKKFSGE-OH; disulfide 9-25; N-terminus assumed) | 6.777 ± 0.5812 | 7e-07 M | – | – | 63.5 mm Hg | 67.4 mm Hg | 3.8 ± 1.6 mm Hg | −9.0 mm Hg | did significantly reduce MAP

From patent publication US8058242B2, “Chimeric proteins with natriuretic activity” (The University of Queensland, priority 2004, dated 2011)
